These results are taken from US6498254B1, “Antiretroviral compounds and compositions” (Uniroyal Chemical Company, Inc., priority 2001, dated 2002).

Converted amounts (≈) assume the structure as drawn. Where only a bound is given, the exact number is not on record here.

In one data set the test system is HIV-2 (ROD). Kind of data set: Inhibition of HIV-2 syncytium formation in CEM cells. It counts as cell-based. The source says:
(§1) The cell type used to determine activity of the compounds of the invention herein, i.e., the test compounds, against HIV was human T-lymphoblast (CEM) cells obtained from the American Tissue Cell Culture Collection (Rockville, Md.). HIV-1 (IIIB) was originally obtained from the culture of persistently HIV-1 infected H9 cells and was provided by R. C. Gallo and M. Popovic (National Cancer Institute, National Institutes of Health, Bethesda, Md.). HIV-2 (ROD) was originally obtained from L. M. Montagnier (Pasteur Institute, Paris, France).
(§2) To determine the antiviral activity of the test compounds, CEM cells were suspended at a cell density of approximately 300,000 cells per ml of culture medium and infected with approximately 100 CClD50 (100 CClD50 being the 50% cell culture infective dose) of HIV-1 (IIIB) or HIV-2 (ROD)). Then 100 μl of the infected cell suspensions was added to 200 μl micro titer plate wells containing 100 μl of appropriate serial (5-fold) dilutions of the test compounds. The inhibitory effect of the test compounds on HIV-1 or HIV-2 syncytium formation in CEM cells was examined microscopically on day four post infection. The 50% effective concentration (EC50) was defined as the test compound concentration that inhibits syncytium formation in the HIV-1 or HIV-2 infected cell cultures by 50%.
(§3) In some cases, the compounds had considerable cytotoxicity to CEM cells which made determination of the EC50 difficult. In these cases, the percent protection of the cells against virus-induced cytopathicity by the test compounds at the indicated compound concentration in the previous column is given.

A further data set deals with CMV Davis strain. The data set is described as follows: Activity against HCMV: virus-induced cytopathicity in HEL cells. It counts as cell-based, human cytomegalovirus (HCMV). As to conditions: Human betaherpesvirus 5, HEL, 168 h, read-out: Antiviral IC50 (μg/ml) Davis strain. As to the method: Confluent HEL cells grown in […] microtiter plates were inoculated with CMV at an input of 100 PFU (plaque forming units) per well. After a one to two hour incubation period, residual virus was removed and the infected cells were further incubated with MEM (Minimal Essential Medium) (supplemented with 2% inactivated Fetal Calf Serum (FCS), […], and 0.3% sodium bicarbonate) containing varying concentrations of the test compounds. Antiviral activity was expressed as EC50 (50% effective concentration), or test compound concentration required to reduce virus-induced cytopathicity after seven days by 50% compared to the untreated control.
In some cases, the compounds had considerable cytotoxicity against HEL cells, which made determination of the EC50's difficult. In these cases, an estimate of the percent protection at the compound concentration indicated in the previous columns is given.

The subject of another data set is HIV-1 (IIIB). The data set is described as follows: Inhibition of HIV-1 syncytium formation in CEM cells. It counts as cell-based.
Excerpt: as §1, §2, §3

Setting [1] is: protection of CEM cells against virus-induced cytopathicity at the compound concentration in the previous column.

On to `Cc1ccc(C)c(C(C)Sc2cc(C)c3ccccc3n2)c1` (stereo not drawn) [Compound 162, 2-[[1-(2,5-dimethylphenyl)ethyl]thio]-4-methylquinoline], for which the melting point is 84 to 85 °C. Further, the EC50 in the data set on HIV-2 (ROD) (Human immunodeficiency virus 2, CCRF-CEM, read-out: EC50 (μg/ml) HIV-2) is above 0.16 µg/mL. In addition, the “HIV-2 % Protection” value in the data set on HIV-2 (ROD) (setting [1]) worked out at 0.0%. The IC50 in the data set with CMV Davis strain turned out to be 1.6 µg/mL (≈ 5.2 µM). For the same compound, in the data set with HIV-1 (IIIB) (Human immunodeficiency virus 1, IIIB, CCRF-CEM, read-out: EC50 (μg/ml) HIV-1), the EC50 is above 0.8 µg/mL. The “HIV-1 % Protection” value with HIV-1 (IIIB) (setting [1]) is listed as 0.0%.

The melting point is the temperature, or range, at which the solid turns liquid.
